Several values for one entry are separate records, joined by “and”; a condition that tells them apart may be missing. Identical values can stand only once.
Assays:
[1] = system: patients with RLS; assay: Case reports: oral ketamine in patients with RLS (Examples 1-6); type: in vivo, human; details: for earlier treatment / earlier treatment of back pain, neurogenic claudication and RLS: before ketamine
Method: A patient presented with a history of back pain, neurogenic claudication, and RLS. Treatment with the dopaminergic agonist, pergolide and oxycodone had been ineffective. In addition to RLS, the patient's past history included prior spinal surgery, insulin-dependent diabetes mellitus, sleep apnea, and congestive heart failure. Their family history was positive for RLS.
The patient was prescribed amitriptyline 25 mg at bedtime and gabapentin 300 mg three times daily in addition to their other medications.
After consenting to the evaluation of single dose efficacy of oral ketamine, the patient received 30 mg of ketamine mixed in 50 cc (or ml) of water. After 20 minutes of observation, the patient noted that their VAS score had improved to 2/10.
A patient with a history of chronic lower back pain, spinal stenosis, scoliosis, and RLS complained of worsening neurogenic claudication. Their VAS was 7/10.
The patient was then treated with 50 mg of oral ketamine.
A patient presented with a history of cardiac transplant, on immune suppressive medication, could not be treated with steroids for with spinal stenosis, neurogenic claudication, and RLS.
A patient presented with a history of multiple back surgeries and depression. […] Opioids were restarted to control the return of the patient's back pain.
A patient presented with a history of a renal transplant with documented lumbar radiculopathy and severe RLS on immunosuppressive treatment. The RLS symptoms were so severe that the patient could not keep their legs still at their initial office visit. […] While the RLS remitted during 4 months of treatment with 25 mg of ketamine daily, opioids were added to the treatment for pain control.
A dialysis patient presented with a history of failed back surgery, spinal stenosis and severe leg pain which responded to treatment with methadone but maintained severe RLS where the patient was not able to sleep more than 2 hours/night.

[2] = cited from earlier work
[3] = Serum levels of ketamine in patients treated with low doses of oral ketamine; type: in vivo, human
Method: Also, it is suitable that the dose of ketamine administered is less than the dose generally administered for alleviation of pain. For example, since only about 20% of an oral dose of ketamine is absorbed, the successful treatment of a patient with 2 mg of ketamine for RLS over a 24 hour period would equal less than 0.001 mg/kg/hour. At these doses, the threshold serum level for pyschotomimetic side effects (on the order of 50 ng/ml) is not reached. Moreover, the threshold serum level for pain relief (on the order of 200 ng/ml) is also not approached. […] Thus, the serum levels at which oral ketamine acts to relieve RLS are substanitially lower than those reported for pain relief. Treatment with low dosages of oral ketamine provides relief for subjects suffering from or affected by RLS by alleviating symptoms associated with RLS, and avoids the side effects generally encountered in the use of ketamine for the treatment of conscious patients and/or other therapies for RLS described above.
(§1) The patients, shown in Examples 7-23, were treated with doses of liquid oral ketamine or oral ketamine in tablet form. There were no patients who had serum levels of ketamine measured that reached the levels reported for therapeutic analgesic effect of ketamine, i.e., 200 ng/ml.

[4] = system: patients with RLS; assay: Patients treated with doses of oral ketamine (Examples 7-23, Table); type: in vivo, human
Method: In the Table shown below, patients were treated with doses of oral ketamine.
as §1

[5] = system: NMDA receptor; details: primary metabolite of oral ketamine; cited from earlier work
[6] = Example 1, amitriptyline 25 mg at bedtime and gabapentin 300 mg three times daily together, a month later
[7] = Example 3, oral 20 mg at bedtime
[8] = one patient per row (Examples 7-23), oral ketamine 10-100 mg/24 hours (col I), treatment 1-8 months (col G)

NCC1(CC(=O)O)CCCCC1 [gabapentin]
symptoms [1, 6]: no improvement in their symptoms
verbal analog pain score (VAS) [1, 6]: 6/10
earlier treatment ([1]; Example 2): without success

CCCN1C[C@H](CSC)C[C@@H]2c3cccc4[nH]cc(c34)C[C@H]21 [pergolide]
earlier treatment of back pain, neurogenic claudication and RLS ([1]; Example 1): ineffective

CN(C)CCC=C1c2ccccc2CCc2ccccc21 [amitriptyline]
symptoms [1, 6]: no improvement in their symptoms
verbal analog pain score (VAS) [1, 6]: 6/10

CS(=O)(=O)c1ccc(C2=C(c3ccccc3)C(=O)OC2)cc1 [rofecoxib]
earlier treatment ([1]; Example 2): without success

CCC(=O)C(CC(C)N(C)C)(c1ccccc1)c1ccccc1 (centres unmarked) [methadone]
severe leg pain ([1]; Example 6, dialysis patient, severe RLS maintained): responded

COc1ccc2c3c1O[C@H]1C(=O)CC[C@@]4(O)[C@@H](C2)N(C)CC[C@]314 [oxycodone]
earlier treatment of back pain, neurogenic claudication and RLS ([1]; Example 1): ineffective

COc1cccc(C2(O)CCCCC2CN(C)C)c1 (centres unmarked) [tramadol]
earlier treatment ([1]; Example 2): without success

CNC1(c2ccccc2Cl)CCCCC1=O (centres unmarked) [ketamine, (2-o-chlorophenyl)-2-(methylamino)-cyclohexanone]
verbal analog pain score (VAS) ([1]; Example 1, person, single oral dose 30 mg ketamine in 50 cc water, after 20 minutes, VAS before 6/10): 2/10
sleep and RLS ([1]; Example 1, oral 30 mg twice a day for 6 months): improvement in sleep and RLS
side effects after single dose ([1]; Example 1, single oral dose 30 mg): no dizziness, or other distressing symptoms
VAS ([1]; Example 2, person, 50 mg oral ketamine, within 15 minutes, VAS before 7/10): 2/10
walking ([1]; Example 2, 50 mg oral ketamine, within 15 minutes): subjective improvement in walking
sleep and RLS symptoms ([1]; Example 2, oral 40 mg twice a day, a month following the trial): significant improvement in their sleep and RLS symptoms
pain relief [1, 7]: no pain relief
side effects [1, 7]: psychotomimetic side effects
RLS ([1]; Example 3, oral 20 mg at bedtime, persisted after ketamine was stopped): resolution of RLS
RLS symptoms and sleep ([1]; Example 4, oral daily 25 mg): lessened RLS symptoms and improved sleep
pain and RLS ([1]; Example 5, renal transplant patient, oral daily 10 mg): pain relief and resolution of RLS
RLS ([1]; Example 5, 25 mg daily, 4 months of treatment): RLS remitted
reduction of RLS symptoms ([1]; Example 6, dialysis patient, 2 mg oral at bedtime): more than 50%
tolerability (psychotomimetic effects) ([1]; Example 6, dialysis patient, 20 mg daily oral): could not tolerate
psychotomimetic side effects ([1]; Example 6, 2 mg oral at bedtime): no psychotomimetic side effects
sleep duration ([1]; Example 6, 2 mg oral at bedtime, before not more than 2 hours/night): more than 4.5 hrs./night
threshold serum level for pain relief ([2]; in vivo): ~200 ng/mL
fraction of an oral dose absorbed ([2]; oral): about 20%
serum levels of ketamine ([3]; patients of Examples 7-23 who had serum levels measured, liquid or tablet oral ketamine): < 200 ng/mL
serum levels of ketamine ([3]; patients treated with low doses of oral ketamine for RLS, commercially available tests): not to have detectable serum levels
F = VAS or visual analog scale for pain/walking ability (improvement) [4, 8]: 80% (4×) and 60% (5×) and 90% and 70% (4×) and 50% (2×) and 40%
J = complications [4, 8]: No (14×) and Yes (2×) and Rash
RLS symptoms ([4]; patients of Examples 7-23, low ketamine dosage): improved related limb sensations, motor restlessness and insomnia

C=C[C@H]1C[N@@]2CC[C@H]1C[C@H]2[C@H](O)c1ccnc2ccc(OC)cc12 [quinine]
earlier treatment ([1]; Example 2): without success

NC1(c2ccccc2Cl)CCCCC1=O (centres unmarked) [norketamine]
potency relative to ketamine [5]: one-third to one-fifth
